Active and inactive are the calls of the source. The calls are words filed in the database; no cut-off is given here.
Legend:
K562 = experiment: Cytotoxicity against human K562 cells assessed as reduction in cell viability measured after 72 hrs by MTT assay; type: functional, cell-based; details: K562, 72 h
HCT-116 [1] = experiment: Cytotoxicity against human HCT116 cells assessed as reduction in cell viability measured after 72 hrs by MTT assay; type: functional, cell-based; details: HCT-116, 72 h
MCF7 = experiment: Cytotoxicity against human MCF7 cells assessed as reduction in cell viability measured after 72 hrs by MTT assay; type: functional, cell-based; details: MCF7, 72 h
HepG2 = experiment: Cytotoxicity against human HepG2 cells assessed as reduction in cell viability measured after 72 hrs by MTT assay; type: functional, cell-based; details: HepG2, 72 h
HCT-116 [2] = experiment: Cytotoxicity against human HCT116 cells assessed as reduction in cell viability measured after 48 hrs by MTT assay; type: functional, cell-based; details: HCT-116, 48 h
HCT-116 [3] = experiment: Induction of morphological changes in human HCT116 cells assessed as discrete apoptotic cells at 6 uM measured after 48 hrs by propidium iodide staining based flow cytometry; type: functional, cell-based
HCT-116 [4] = experiment: Induction of autophagy in human HCT116 cells assessed as formation of autophagic vacuoles at 3 to 6 uM measured after 48 hrs by monodansylcadaverine staining based confocal microscopy; type: functional, cell-based
HCT-116 [5] = experiment: Induction of apoptosis in human HCT116 cells assessed as early apoptotic cells at 1.5 uM measured after 48 hrs by annexinV-PE/7-AAD staining based flow cytometric analysis (reference value: 6.53 %); type: functional
HCT-116 [6] = experiment: Induction of apoptosis in human HCT116 cells assessed as live cells at 3 uM measured after 48 hrs by annexinV-PE/7-AAD staining based flow cytometric analysis (reference value: 91.42 %); type: functional
HCT-116 [7] = experiment: Induction of apoptosis in human HCT116 cells assessed as necrotic cells at 3 uM measured after 48 hrs by annexinV-PE/7-AAD staining based flow cytometric analysis (reference value: 0.16 %); type: functional
HCT-116 [8] = experiment: Induction of apoptosis in human HCT116 cells assessed as live cells at 6 uM measured after 48 hrs by annexinV-PE/7-AAD staining based flow cytometric analysis (reference value: 91.42 %); type: functional
HCT-116 [9] = experiment: Induction of apoptosis in human HCT116 cells assessed as early apoptotic cells at 6 uM measured after 48 hrs by annexinV-PE/7-AAD staining based flow cytometric analysis (reference value: 6.53 %); type: functional
HCT-116 [10] = experiment: Induction of apoptosis in human HCT116 cells assessed as necrotic cells at 6 uM measured after 48 hrs by annexinV-PE/7-AAD staining based flow cytometric analysis (reference value: 0.16 %); type: functional
HCT-116 [11] = experiment: Induction of apoptosis in human HCT116 cells assessed as […] in cleaved caspase 7 expression at 3 to 6 uM measured after 48 hrs by Western blot analysis; type: functional, cell-based
HCT-116 [12] = experiment: Disruption of membrane integrity in human HCT116 cells assessed as decrease in viable cells at 6 uM measured after 48 hrs by propidium iodide staining based flow cytometry relative to control; type: functional
HCT-116 [13] = experiment: Cell cycle arrest in human HCT116 cells assessed as accumulation at G0/G1 phase at 1.5 uM measured after 48 hrs by propidium iodide staining based flow cytometry (reference value: 41.67 %); type: functional
HCT-116 [14] = experiment: Cell cycle arrest in human HCT116 cells assessed as accumulation at G2/M phase at 1.5 uM measured after 48 hrs by propidium iodide staining based flow cytometry (reference value: 24.98 %); type: functional

SMILES: C(=N\Nc1cnc2ccccc2n1)/c1ccccn1
- IC50 (K562): 2.62 µM
- IC50 (HCT-116 [1]): 1.83 µM
- IC50 (MCF7): 7 µM
- IC50 (HepG2): 7.35 µM
- IC50 (HCT-116 [2]): 3.04 µM
- Activity (HCT-116 [3]): Active
- Activity (HCT-116 [4]): Active
- Activity (HCT-116 [5]): 5.61%
- Activity (HCT-116 [6]): 90.36%
- Activity (HCT-116 [7]): 0.87%
- Activity (HCT-116 [8]): 66.2%
- Activity (HCT-116 [9]): 8.28%
- Activity (HCT-116 [10]): 7.49%
- Activity (HCT-116 [11]): Active
- Activity (HCT-116 [12]): 68.31%
- Activity (HCT-116 [13]): 35.69%
- Activity (HCT-116 [14]): 29.99%

— ChEMBL document CHEMBL4602644, “Synthesis of PJOV56, a new quinoxalinyl-hydrazone derivative able to induce autophagy and apoptosis in colorectal cancer cells, and related compounds” (Bioorg Med Chem Lett, 2020)
